Laboratory results reported in US6069160A, “Heteroatom-containing benzocyclopentane-oxazolidinones” (Bayer Aktiengesellschaft, priority 1995, dated 2000).
In brackets after ≈: the same amount, converted by molar mass. Where two headings read alike, the source gives them in different places.

What was measured:
Format in all cases: cell-based
[1] = tested on: Staph. 133; experiment: MIC by series dilution method
Procedure: (§1) The minimum inhibitory concentration (MIC) were determined by a series dilution method on Iso-Sensitest agar (Oxoid). For each test substance, a series of agar plates each comprising concentrations of the active compound decreasing by double dilution in each case was prepared. The agar plates were inoculated with a multipoint inoculator (Denley). Overnight cultures of the pathogens which had been diluted beforehand such that each inoculation point comprised about 10^4 colony-forming particles were used for the inoculation. The inoculated agar plates were incubated at 37° C. and the germ growth was read off after about 20 hours. The MIC value (μg/ml) indicates the lowest active compound concentration at which no growth was detectable with the naked eye. […]

[2] = tested on: Staph. 25701; experiment: MIC by series dilution method
Procedure: as §1

[3] = tested on: Staph. 48N; experiment: MIC by series dilution method
Procedure: as §1

[4] = tested on: Staph. 9TV; experiment: MIC by series dilution method
Procedure: as §1

[5] = tested on: E. coli Neumann; experiment: MIC by series dilution method; details: Escherichia coli
Procedure: (§2) The minimum inhibitory concentration (MIC) were determined by a series dilution method on Iso-Sensitest agar (Oxoid). For each test substance, a series of agar plates each comprising concentrations of the active compound decreasing by double dilution in each case was prepared. The agar plates were inoculated with a multipoint inoculator (Denley). Overnight cultures of the pathogens which had been diluted beforehand such that each inoculation point comprised about 10^4 colony-forming particles were used for the inoculation. The inoculated agar plates were incubated at 37° C. and the germ growth was read off after about 20 hours. The MIC value (μg/ml) indicates the lowest active compound concentration at which no growth was detectable with the naked eye.

[6] = tested on: Klebs. 57 USA; experiment: MIC by series dilution method; details: 37° C., about 20 hours
Procedure: as §2

[7] = tested on: Psdm. Bonn; experiment: MIC by series dilution method; details: 37° C., about 20 hours
Procedure: as §2

[8] = tested on: Mycobacterium smegmacis DSM 43061; experiment: MIC in microtiter plates (Mycobacterium); details: DSM43061, 37° C., 3 to 5 days
Procedure: (§3) The microtiter plates were incubated at 37° C. and read off after about 20 hours (Staph) or after 3 to 5 days (Mycobacterium). The MIC value (μg/ml) indicates the lowest concentration of active substance at which no growth was detectable.

[9] = tested on: Mycobacterium smegmacis DSM 43078; experiment: MIC in microtiter plates (Mycobacterium); details: DSM43078, 37° C., 3 to 5 days
Procedure: as §3

[10] = tested on: Mycobacterium smegmacis DSM 43277; experiment: MIC in microtiter plates (Mycobacterium); details: DSM43277, 37° C., 3 to 5 days
Procedure: as §3

[11] = tested on: Mycobacterium smegmacis DSM 43299; experiment: MIC in microtiter plates (Mycobacterium); details: DSM43299, 37° C., 3 to 5 days
Procedure: as §3

[12] = tested on: Mycobacterium smegmacis DSM 43464; experiment: MIC in microtiter plates (Mycobacterium); details: DSM43464, 37° C., 3 to 5 days
Procedure: as §3

[13] = tested on: Mycobacterium smegmacis DSM 43465; experiment: MIC in microtiter plates (Mycobacterium); details: DSM43465, 37° C., 3 to 5 days
Procedure: as §3

[14] = Staph. 25701, 37° C., about 20 hours, read-out: MIC
[15] = Staph. 48N, 37° C., about 20 hours, read-out: MIC
[16] = Staph. 9TV, 37° C., about 20 hours, read-out: MIC
[17] = Staph. 133, 37° C., about 20 hours, read-out: MIC
[18] = E. coli Neumann, 37° C., about 20 hours, read-out: MIC

CC(=O)NC[C@H]1CN(c2ccc3[nH]c(=O)oc3c2)C(=O)O1 [Example 24]
MIC ([1]; 20 h): 8 µg/mL (≈ 27.5 µM) | MIC [2, 14]: 16 µg/mL (≈ 54.9 µM) | MIC [3, 15]: 16 µg/mL (≈ 54.9 µM) | MIC [4, 16]: 16 µg/mL (≈ 54.9 µM) | MIC ([5]; 20 h): > 64 µg/mL | MIC [6]: > 64 µg/mL | MIC [7]: > 64 µg/mL

CC(=O)NC[C@H]1CN(c2ccc3c(c2)oc(=S)n3C)C(=O)O1 [Example 43]
MIC [1, 17]: 0.25 µg/mL (≈ 0.778 µM) | MIC [2, 14]: 0.25 µg/mL (≈ 0.778 µM) | MIC [3, 15]: 0.125 µg/mL (≈ 0.389 µM) | MIC [4, 16]: 0.125 µg/mL (≈ 0.389 µM) | MIC [5, 18]: > 32 µg/mL | MIC [6]: > 64 µg/mL | MIC [7]: > 64 µg/mL

CCC(=O)NC[C@H]1CN(c2ccc3c(c2)sc(=O)n3C)C(=O)O1 [Example 56]
MIC [1, 17]: 0.5 µg/mL (≈ 1.49 µM) | MIC [2, 14]: 0.5 µg/mL (≈ 1.49 µM) | MIC [3, 15]: 0.5 µg/mL (≈ 1.49 µM) | MIC [4, 16]: 0.25 µg/mL (≈ 0.745 µM) | MIC ([5]; 20 h): 64 µg/mL (≈ 191 µM) | MIC [6]: > 64 µg/mL | MIC [7]: > 64 µg/mL | MIC [8]: 1 µg/mL (≈ 2.98 µM) | MIC [9]: 1 µg/mL (≈ 2.98 µM) | MIC [10]: 0.25 µg/mL (≈ 0.745 µM) | MIC [11]: 1 µg/mL (≈ 2.98 µM) | MIC [12]: 4 µg/mL (≈ 11.9 µM) | MIC [13]: 0.5 µg/mL (≈ 1.49 µM)

Cn1c(=O)sc2cc(N3C[C@H](CNC(=O)C4CC4)OC3=O)ccc21 [Example 54]
MIC [8]: 4 µg/mL (≈ 11.5 µM) | MIC [9]: 1 µg/mL (≈ 2.88 µM) | MIC [10]: 2 µg/mL (≈ 5.76 µM) | MIC [11]: 4 µg/mL (≈ 11.5 µM) | MIC [12]: 16 µg/mL (≈ 46.1 µM) | MIC [13]: 4 µg/mL (≈ 11.5 µM)

CCCCCn1c(=O)oc2cc(N3C[C@H](CNC(C)=O)OC3=O)ccc21 [Example 84]
MIC [1, 17]: 1 µg/mL (≈ 2.77 µM) | MIC [2, 14]: 1 µg/mL (≈ 2.77 µM) | MIC [3, 15]: 1 µg/mL (≈ 2.77 µM) | MIC [4, 16]: 0.5 µg/mL (≈ 1.38 µM) | MIC ([5]; 20 h): 64 µg/mL (≈ 177 µM) | MIC [6]: > 64 µg/mL | MIC [7]: > 64 µg/mL

CC(=O)NC[C@H]1CN(c2ccc3c(c2)oc(=O)n3C)C(=O)O1 [Example 37]
MIC [1, 17]: 1 µg/mL (≈ 3.28 µM) | MIC [2, 14]: 1 µg/mL (≈ 3.28 µM) | MIC [3, 15]: 1 µg/mL (≈ 3.28 µM) | MIC [4, 16]: 0.5 µg/mL (≈ 1.64 µM) | MIC [5, 18]: 16 µg/mL (≈ 52.4 µM) | MIC [6]: 64 µg/mL (≈ 210 µM) | MIC [7]: 64 µg/mL (≈ 210 µM)

CCn1c(=O)sc2cc(N3C[C@H](CNC(C)=O)OC3=O)ccc21 [Example 22]
MIC [1, 17]: 1 µg/mL (≈ 2.98 µM) | MIC [2, 14]: 1 µg/mL (≈ 2.98 µM) | MIC [3, 15]: 1 µg/mL (≈ 2.98 µM) | MIC [4, 16]: 0.5 µg/mL (≈ 1.49 µM) | MIC ([5]; 20 h): > 64 µg/mL | MIC [6]: > 64 µg/mL | MIC [7]: > 64 µg/mL

COP(=O)(NC[C@H]1CN(c2ccc3c(c2)sc(=O)n3C)C(=O)O1)OC [Example 17]
MIC ([1]; 20 h): 8 µg/mL (≈ 20.7 µM) | MIC ([2]; 20 h): 8 µg/mL (≈ 20.7 µM) | MIC ([3]; 20 h): 8 µg/mL (≈ 20.7 µM) | MIC ([4]; 20 h): 8 µg/mL (≈ 20.7 µM) | MIC ([5]; 20 h): > 64 µg/mL | MIC [6]: > 64 µg/mL | MIC [7]: > 64 µg/mL

Cn1c(=O)sc2cc(N3C[C@H](CNC(=O)C4CCC4)OC3=O)ccc21 [Example 62]
MIC [1, 17]: 1 µg/mL (≈ 2.77 µM) | MIC [2, 14]: 1 µg/mL (≈ 2.77 µM) | MIC [3, 15]: 1 µg/mL (≈ 2.77 µM) | MIC [4, 16]: 0.5 µg/mL (≈ 1.38 µM) | MIC ([5]; 20 h): > 64 µg/mL | MIC [6]: > 64 µg/mL | MIC [7]: > 64 µg/mL

CCOC(=O)Cn1c(=O)oc2cc(N3C[C@H](CNC(C)=O)OC3=O)ccc21 [Example 39]
MIC [1, 17]: 4 µg/mL (≈ 10.6 µM) | MIC [2, 14]: 4 µg/mL (≈ 10.6 µM) | MIC [3, 15]: 4 µg/mL (≈ 10.6 µM) | MIC [4, 16]: 4 µg/mL (≈ 10.6 µM) | MIC ([5]; 20 h): > 64 µg/mL | MIC [6]: > 64 µg/mL | MIC [7]: > 64 µg/mL

CC(=O)NC[C@H]1CN(c2ccc3c(c2)oc(=O)n3Cc2ccccc2)C(=O)O1 [Example 38]
MIC [1, 17]: 4 µg/mL (≈ 10.5 µM) | MIC [2, 14]: 4 µg/mL (≈ 10.5 µM) | MIC [3, 15]: 4 µg/mL (≈ 10.5 µM) | MIC [4, 16]: 1 µg/mL (≈ 2.62 µM) | MIC ([5]; 20 h): > 64 µg/mL | MIC [6]: > 64 µg/mL | MIC [7]: > 64 µg/mL

CC(=O)NC[C@H]1CN(c2ccc3c(c2)sc(=O)n3C)C(=O)O1 [Example 18]
MIC [1, 17]: 0.25 µg/mL (≈ 0.778 µM) | MIC [2, 14]: 0.25 µg/mL (≈ 0.778 µM) | MIC [3, 15]: 0.25 µg/mL (≈ 0.778 µM) | MIC [4, 16]: 0.06 µg/mL (≈ 0.187 µM) | MIC ([5]; 20 h): > 64 µg/mL | MIC [6]: > 64 µg/mL | MIC [7]: > 64 µg/mL | MIC [8]: 0.25 µg/mL (≈ 0.778 µM) | MIC [9]: 0.25 µg/mL (≈ 0.778 µM) | MIC [10]: 0.25 µg/mL (≈ 0.778 µM) | MIC [11]: 1 µg/mL (≈ 3.11 µM) | MIC [12]: 1 µg/mL (≈ 3.11 µM) | MIC [13]: 0.5 µg/mL (≈ 1.56 µM)

COC(=O)NC[C@H]1CN(c2ccc3c(c2)sc(=O)n3C)C(=O)O1 [Example 70]
MIC [1, 17]: 0.5 µg/mL (≈ 1.48 µM) | MIC [2, 14]: 0.5 µg/mL (≈ 1.48 µM) | MIC [3, 15]: 0.5 µg/mL (≈ 1.48 µM) | MIC [4, 16]: 0.5 µg/mL (≈ 1.48 µM) | MIC ([5]; 20 h): > 64 µg/mL | MIC [6]: > 64 µg/mL | MIC [7]: > 64 µg/mL | MIC [8]: 0.25 µg/mL (≈ 0.741 µM) | MIC [9]: 0.125 µg/mL (≈ 0.371 µM) | MIC [10]: 0.5 µg/mL (≈ 1.48 µM) | MIC [11]: 2 µg/mL (≈ 5.93 µM) | MIC [12]: 8 µg/mL (≈ 23.7 µM) | MIC [13]: 1 µg/mL (≈ 2.96 µM)

CCn1c(=S)sc2cc(N3C[C@H](CNC(C)=O)OC3=O)ccc21 [Example 44]
MIC [1, 17]: 0.5 µg/mL (≈ 1.42 µM) | MIC [2, 14]: 0.5 µg/mL (≈ 1.42 µM) | MIC [3, 15]: 0.5 µg/mL (≈ 1.42 µM) | MIC [4, 16]: 0.5 µg/mL (≈ 1.42 µM) | MIC ([5]; 20 h): > 64 µg/mL | MIC [6]: > 64 µg/mL | MIC [7]: > 64 µg/mL

CC(=O)NC[C@H]1CN(c2ccc3c(c2)oc(=O)n3C(C)C)C(=O)O1 [Example 47]
MIC [1, 17]: 0.5 µg/mL (≈ 1.5 µM) | MIC [2, 14]: 0.5 µg/mL (≈ 1.5 µM) | MIC [3, 15]: 0.5 µg/mL (≈ 1.5 µM) | MIC [4, 16]: 0.25 µg/mL (≈ 0.75 µM) | MIC [5, 18]: 32 µg/mL (≈ 96 µM) | MIC [6]: 64 µg/mL (≈ 192 µM) | MIC [7]: > 64 µg/mL

CC(=O)NC[C@H]1CN(c2ccc3c(c2)oc(=NC(=O)C2CC2)n3C)C(=O)O1 [Example 94]
MIC [1, 17]: 0.5 µg/mL (≈ 1.34 µM) | MIC [2, 14]: 0.5 µg/mL (≈ 1.34 µM) | MIC [3, 15]: 0.5 µg/mL (≈ 1.34 µM) | MIC [4, 16]: 0.25 µg/mL (≈ 0.671 µM) | MIC ([5]; 20 h): 64 µg/mL (≈ 172 µM) | MIC [6]: > 64 µg/mL | MIC [7]: > 64 µg/mL
